Assay results from patent US20260355188A1, “COMBINATION THERAPIES USING PRMT5 INHIBITORS AND BCL-2 FAMILY INHIBITORS FOR THE TREATMENT OF CANCER” (MIRATI THERAPEUTICS, INC., priority 2022, published 2026).

Experiments:
H2452 = assay: In vitro combination synergy, H2452 (Cell-Titer Glo); format: cell-based; settings: combined with exemplary PRMT5 inhibitor, 120 h, sum of Loewe, Bliss, HSA and ZIP scores
Protocol: (§1) A panel of MTAP-deleted cancer cell lines was assembled to determine whether combining BCL-2 family inhibitors with exemplary PRMT5 inhibitors disclosed herein results in synergistic activity.
(§2) [Assays for determining the synergy score for the pairwise combinations for each cell line were performed in triplicate. 384 or 96-well plates plus additional wells of a separate 384 or 96-well control plate for determining baseline luminescence were seeded with cells of a particular MTAP-deleted cell line in a suitable growth medium for that cell line, e.g., RPMI 1640 medium supplemented with 10% FBS and any cell line specific reagents needed for growth. The plates were incubated overnight at 37 °C in a 5% CO2 atmosphere.
(§3) To each of the designated baseline wells, Cell-Titer Glo reagent (CTG; Promega Corporation) was added to each well and the plates were incubated for 20 min shaking at room temperature. Baseline luminescence was quantitated using a BMG ClarioStar multimode plate reader according to the manufacturer's instructions.
(§4) A series of 1000× drug dilutions in 100% DMSO was prepared that includes a 9-point single agent 3-fold dilution of the exemplary PRMT5 inhibitor (of the type described in WO2021/050915) with a top dose of 3000 nM (and a 6-point single agent 5-fold dilution of the BCL-2 family inhibitor with a top dose of 3000 nM as reference standards.
(§5) A 10× intermediate dosing plate was prepared in serum free medium that contains arrayed single agent dilutions of exemplary PRMT5 inhibitor (of the type described in WO2021/050915) and or the BCL-2 family inhibitor. In addition, a matrix of 54 dilution combinations of exemplary PRMT5 inhibitor (of the type described in WO2021/050915) and the BCL-2 family inhibitor was prepared as test samples.
(§6) To each corresponding well of the 384-well plates seeded with the appropriate cell line above, 10× single agent and the 54 combinations of the dose matrix was added and the plates were incubated for 120 hours at 37 °C in 5% CO2 atmosphere. Cell-Titer Glo reagent (CTG) was added to each test well, the plates were incubated for 20 min shaking at room temperature, and luminescence was quantitated using a BMG ClarioStar multimode plate reader according to the manufacturer's instructions. To normalize test samples, the determined baseline luminescence was subtracted from each test sample prior to analysis and mean values are calculated from replicate samples.
(§7) The output of the data from each mathematical model is the assignment of a relative synergy score. The data reported in Table 6 are the aggregate sum of the Loewe additivity, Bliss independence, Highest Single Agent and ZIP synergy scores (“Composite Synergy Score”).

LU99 = assay: In vitro combination synergy, LU99 (Cell-Titer Glo); format: cell-based; settings: combined with exemplary PRMT5 inhibitor, 120 h, sum of Loewe, Bliss, HSA and ZIP scores
Protocol: as §1, §2, §3, §4, §5, §6, §7

LU99 xenograft tumors = assay: In vivo combination study (LU99 model), Example 1; design: species or system female nu/nu mice; settings: MRTX1719, ABT-263, ABT-199 each 100 mg/kg PO QD, alone or combined
Text: Immunodeficient female nu/nu mice were implanted with 5×10^6 LU99 cancer cells in 50% Matrigel. Tumor volume measurements were collected using calipers and determined utilizing the formula 0.5×L×W^2 in which L refers to length and W refers to width of each tumor. When tumors reached approximately 125-150 mm^3, animals were randomized to receive A) vehicle, B) a PRMT5 inhibitor, C) navitoclax (ABT-263), D) venetoclax (ABT-199), E) A-1331852, F) the PRMT5 inhibitor and navitoclax, F) the PRMT5 inhibitor and venetoclax, or G) the PRMT5 inhibitor and A-1331852 all administered orally (PO) with the indicated dose and schedule for 20-34 days. Tumor volume was measured twice a week (n=5/treatment group). Average tumor volume and standard error of the mean was calculated and plotted at each study day using GraphPad Prism.
The PRMT5 inhibitor was MRTX1719 administered at 100 mg/kg once a day (QD). MRTX1719 is (2M)-2-(4-(4-(aminomethyl)-1-oxo-1,2-dihydrophthalazin-6-yl)-1-methyl-1H-pyrazol-5-yl)-4-chloro-6-cyclopropoxy-3-fluorobenzonitrile, disclosed as Example 16-8 at p. 307 of the international patent publication No. WO 2021/050915 A1, published 18 Mar. 2021, incorporated by reference in its entirety.
The BCL-2 family inhibitors used in this example, ABT-199 (venetoclax) and ABT-263 (navitoclax), were administered at 100 mg/kg once a day (QD) and supplied by Selleck Chemicals (Houston, TX).

A549 = assay: In vitro combination synergy, A549 (Cell-Titer Glo); format: cell-based; settings: combined with exemplary PRMT5 inhibitor, 120 h, sum of Loewe, Bliss, HSA and ZIP scores
Protocol: as §1, §2, §3, §4, §5, §6, §7

H1437 = assay: In vitro combination synergy, H1437 (Cell-Titer Glo); format: cell-based; settings: combined with exemplary PRMT5 inhibitor, 120 h, sum of Loewe, Bliss, HSA and ZIP scores
Protocol: as §1, §2, §3, §4, §5, §6, §7

Mero83 = assay: In vitro combination synergy, Mero83 (Cell-Titer Glo); format: cell-based; settings: combined with exemplary PRMT5 inhibitor, 120 h, sum of Loewe, Bliss, HSA and ZIP scores
Protocol: as §1, §2, §3, §4, §5, §6, §7

H1650 = assay: In vitro combination synergy, H1650 (Cell-Titer Glo); format: cell-based; settings: combined with exemplary PRMT5 inhibitor, 120 h, sum of Loewe, Bliss, HSA and ZIP scores
Protocol: as §1, §2, §3, §4, §5, §6, §7

RT4 = assay: In vitro combination synergy, RT4 (Cell-Titer Glo); format: cell-based; settings: combined with exemplary PRMT5 inhibitor, 120 h, sum of Loewe, Bliss, HSA and ZIP scores
Protocol: as §1, §2, §3, §4, §5, §6, §7

Mero14 = assay: In vitro combination synergy, Mero14 (Cell-Titer Glo); format: cell-based; settings: combined with exemplary PRMT5 inhibitor, 120 h, sum of Loewe, Bliss, HSA and ZIP scores
Protocol: as §1, §2, §3, §4, §5, §6, §7

H2228 = assay: In vitro combination synergy, H2228 (Cell-Titer Glo); format: cell-based; settings: combined with exemplary PRMT5 inhibitor, 120 h, sum of Loewe, Bliss, HSA and ZIP scores
Protocol: as §1, §2, §3, §4, §5, §6, §7

H2052 = assay: In vitro combination synergy, H2052 (Cell-Titer Glo); format: cell-based; settings: combined with exemplary PRMT5 inhibitor, 120 h, sum of Loewe, Bliss, HSA and ZIP scores
Protocol: as §1, §2, §3, §4, §5, §6, §7

Mero84 = assay: In vitro combination synergy, Mero84 (Cell-Titer Glo); format: cell-based; settings: combined with exemplary PRMT5 inhibitor, 120 h, sum of Loewe, Bliss, HSA and ZIP scores
Protocol: as §1, §2, §3, §4, §5, §6, §7

SU8686 = assay: In vitro combination synergy, SU8686 (Cell-Titer Glo); format: cell-based; settings: combined with exemplary PRMT5 inhibitor, 120 h, sum of Loewe, Bliss, HSA and ZIP scores
Protocol: as §1, §2, §3, §4, §5, §6, §7

SW1573 = assay: In vitro combination synergy, SW1573 (Cell-Titer Glo); format: cell-based; settings: combined with exemplary PRMT5 inhibitor, 120 h, sum of Loewe, Bliss, HSA and ZIP scores
Protocol: as §1, §2, §3, §4, §5, §6, §7

HCC4006 = assay: In vitro combination synergy, HCC4006 (Cell-Titer Glo); format: cell-based; settings: combined with exemplary PRMT5 inhibitor, 120 h, sum of Loewe, Bliss, HSA and ZIP scores
Protocol: as §1, §2, §3, §4, §5, §6, §7

Miapaca2 = assay: In vitro combination synergy, Miapaca2 (Cell-Titer Glo); format: cell-based; settings: combined with exemplary PRMT5 inhibitor, 120 h, sum of Loewe, Bliss, HSA and ZIP scores
Protocol: as §1, §2, §3, §4, §5, §6, §7

SMILES | Composite Synergy Score (H2452) | Composite Synergy Score (LU99) | Composite Synergy Score (A549) | Composite Synergy Score (H1437) | Composite Synergy Score (Mero83) | Composite Synergy Score (H1650) | Composite Synergy Score (RT4) | Composite Synergy Score (Mero14) | Composite Synergy Score (H2228) | Composite Synergy Score (H2052) | Composite Synergy Score (Mero84) | Composite Synergy Score (SU8686) | Composite Synergy Score (SW1573) | Composite Synergy Score (HCC4006) | Composite Synergy Score (Miapaca2) | also measured
CC1(C)CCC(CN2CCN(c3ccc(C(=O)NS(=O)(=O)c4ccc(NCC5CCOCC5)c([N+](=O)[O-])c4)c(Oc4cnc5[nH]ccc5c4)c3)CC2)=C(c2ccc(Cl)cc2)C1 [ABT-199, venetoclax] | 28 | −8 | −7 | 2 | 20 | −11 | 0 | −8 | −13 | −33 | −12 | 4 | −16 | −6 | −7 | Average Tumor Volume (LU99 xenograft tumors; day 3): 270 mm^3; Average Tumor Volume (LU99 xenograft tumors; day 6): 462 mm^3; Average Tumor Volume (LU99 xenograft tumors; day 10): 709 mm^3; Average Tumor Volume (LU99 xenograft tumors; day 13): 956 mm^3; Average Tumor Volume (LU99 xenograft tumors; day 17): 1395 mm^3; Average Tumor Volume (LU99 xenograft tumors; day 20): 1675 mm^3; Average Tumor Volume (LU99 xenograft tumors; day −1): 153 mm^3
CN(C)CC#Cc1ccc(OCCCc2sc(N3CCc4cccc(C(=O)Nc5nc6ccccc6s5)c4C3)nc2C(=O)O)c(F)c1 [A-1155463] | 37 | 27 | 22 | 17 | −11 | 51 | 37 | 12 | 46 | 14 | 0 | 50 | 29 | 88 | 44 | –
